Source: PubChem BioAssay (NCI)
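Results reflect a 48-hour exposure of cells in 96-well plates to compound at five concentrations. Abbreviation: GI50, concentration required for 50% inhibition of growth. Definition used: TGI = concentration required for complete inhibition of growth.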

Experiments:
Test in all cases: inhibition of tumour cell growth, NCI panel, 48 h
786-0 renal = system: 786-0 renal
A498 renal = system: A498 renal
A549 NSCLC = system: A549 NSCLC
ACHN renal = system: ACHN renal
BT-549 breast = system: BT-549 breast
CAKI-1 renal = system: CAKI-1 renal
CCRF-CEM leukemia = system: CCRF-CEM leukemia
COLO 205 colon = system: COLO 205 colon
DU-145 prostate = system: DU-145 prostate
EKVX NSCLC = system: EKVX NSCLC
HCC-2998 colon = system: HCC-2998 colon
HCT-116 colon = system: HCT-116 colon
HCT-15 colon = system: HCT-15 colon
HL-60(TB) leukemia = system: HL-60(TB) leukemia
HOP-62 NSCLC = system: HOP-62 NSCLC
HOP-92 NSCLC = system: HOP-92 NSCLC
HS 578T breast = system: HS 578T breast
HT29 colon = system: HT29 colon
IGROV1 ovarian = system: IGROV1 ovarian
K-562 leukemia = system: K-562 leukemia
KM12 colon = system: KM12 colon
LOX IMVI melanoma = system: LOX IMVI melanoma
M14 melanoma = system: M14 melanoma
MCF7 breast = system: MCF7 breast
MDA-MB-231 breast = system: MDA-MB-231 breast
MDA-MB-435 = system: MDA-MB-435
MOLT-4 leukemia = system: MOLT-4 leukemia
NCI-H226 lung = system: NCI-H226 lung
NCI-H23 lung = system: NCI-H23 lung
NCI-H460 lung = system: NCI-H460 lung
NCI-H522 lung = system: NCI-H522 lung
NCI/ADR-RES ovarian = system: NCI/ADR-RES ovarian
OVCAR-3 ovarian = system: OVCAR-3 ovarian
OVCAR-4 ovarian = system: OVCAR-4 ovarian
OVCAR-5 ovarian = system: OVCAR-5 ovarian
OVCAR-8 ovarian = system: OVCAR-8 ovarian
PC-3 prostate = system: PC-3 prostate
RPMI-8226 leukemia = system: RPMI-8226 leukemia
RXF 393 renal = system: RXF 393 renal
SF-268 CNS = system: SF-268 CNS
SF-295 CNS = system: SF-295 CNS
SF-539 CNS = system: SF-539 CNS
SK-MEL-2 melanoma = system: SK-MEL-2 melanoma
SK-MEL-28 melanoma = system: SK-MEL-28 melanoma
SK-MEL-5 melanoma = system: SK-MEL-5 melanoma
SK-OV-3 ovarian = system: SK-OV-3 ovarian
SN12C renal = system: SN12C renal
SNB-19 CNS = system: SNB-19 CNS
SNB-75 CNS = system: SNB-75 CNS
SR leukemia = system: SR leukemia
SW-620 colon = system: SW-620 colon
T-47D breast = system: T-47D breast
TK-10 renal = system: TK-10 renal
U251 CNS = system: U251 CNS
UACC-257 melanoma = system: UACC-257 melanoma
UACC-62 melanoma = system: UACC-62 melanoma
UO-31 renal = system: UO-31 renal

CCN1/C(=C/C=C/C=C/c2sc3ccccc3[n+]2CC)Sc2ccccc21
GI50 (786-0 renal): 516 nM
TGI (786-0 renal): 1710 nM
GI50 (A498 renal): 943 nM
TGI (A498 renal): 4120 nM
GI50 (A549 NSCLC): 332 nM
TGI (A549 NSCLC): 2590 nM
GI50 (ACHN renal): 566 nM
TGI (ACHN renal): 3280 nM
GI50 (BT-549 breast): 213 nM
TGI (BT-549 breast): 1180 nM
GI50 (CAKI-1 renal): 376 nM
TGI (CAKI-1 renal): 2290 nM
GI50 (CCRF-CEM leukemia): 353 nM
TGI (CCRF-CEM leukemia): > 21800 nM
GI50 (COLO 205 colon): 191 nM
TGI (COLO 205 colon): 347 nM
GI50 (DU-145 prostate): 394 nM
TGI (DU-145 prostate): 1730 nM
GI50 (EKVX NSCLC): 122 nM
TGI (EKVX NSCLC): 798 nM
GI50 (HCC-2998 colon): 381 nM
TGI (HCC-2998 colon): 1690 nM
GI50 (HCT-116 colon): 181 nM
TGI (HCT-116 colon): 828 nM
GI50 (HCT-15 colon): 1220 nM
TGI (HCT-15 colon): 4700 nM
GI50 (HL-60(TB) leukemia): 143 nM
TGI (HL-60(TB) leukemia): 656 nM
GI50 (HOP-62 NSCLC): 420 nM
TGI (HOP-62 NSCLC): 1540 nM
GI50 (HOP-92 NSCLC): 320 nM
TGI (HOP-92 NSCLC): 3270 nM
GI50 (HS 578T breast): 272 nM
TGI (HS 578T breast): 987 nM
GI50 (HT29 colon): 230 nM
TGI (HT29 colon): 1200 nM
GI50 (IGROV1 ovarian): 503 nM
TGI (IGROV1 ovarian): 2140 nM
GI50 (K-562 leukemia): 65.2 nM
TGI (K-562 leukemia): 512 nM
GI50 (KM12 colon): 378 nM
TGI (KM12 colon): 1400 nM
GI50 (LOX IMVI melanoma): 296 nM
TGI (LOX IMVI melanoma): 1600 nM
GI50 (M14 melanoma): 416 nM
TGI (M14 melanoma): 1490 nM
GI50 (MCF7 breast): 290 nM
TGI (MCF7 breast): 1300 nM
GI50 (MDA-MB-231 breast): 302 nM
TGI (MDA-MB-231 breast): 1480 nM
GI50 (MDA-MB-435): 314 nM
TGI (MDA-MB-435): 1310 nM
GI50 (MOLT-4 leukemia): 234 nM
TGI (MOLT-4 leukemia): 1020 nM
GI50 (NCI-H226 lung): 344 nM
TGI (NCI-H226 lung): 2990 nM
GI50 (NCI-H23 lung): 164 nM
TGI (NCI-H23 lung): 2330 nM
GI50 (NCI-H460 lung): 200 nM
TGI (NCI-H460 lung): 1060 nM
GI50 (NCI-H522 lung): 281 nM
TGI (NCI-H522 lung): 1510 nM
GI50 (NCI/ADR-RES ovarian): 2990 nM
TGI (NCI/ADR-RES ovarian): 16700 nM
GI50 (OVCAR-3 ovarian): 331 nM
TGI (OVCAR-3 ovarian): 1180 nM
GI50 (OVCAR-4 ovarian): 261 nM
TGI (OVCAR-4 ovarian): 2510 nM
GI50 (OVCAR-5 ovarian): 639 nM
TGI (OVCAR-5 ovarian): 6050 nM
GI50 (OVCAR-8 ovarian): 398 nM
TGI (OVCAR-8 ovarian): 2580 nM
GI50 (PC-3 prostate): 243 nM
TGI (PC-3 prostate): 1390 nM
GI50 (RPMI-8226 leukemia): 149 nM
TGI (RPMI-8226 leukemia): 2210 nM
GI50 (RXF 393 renal): 805 nM
TGI (RXF 393 renal): 2530 nM
GI50 (SF-268 CNS): 431 nM
TGI (SF-268 CNS): 1620 nM
GI50 (SF-295 CNS): 153 nM
TGI (SF-295 CNS): 508 nM
GI50 (SF-539 CNS): 377 nM
TGI (SF-539 CNS): 2490 nM
GI50 (SK-MEL-2 melanoma): 979 nM
TGI (SK-MEL-2 melanoma): 2720 nM
GI50 (SK-MEL-28 melanoma): 720 nM
TGI (SK-MEL-28 melanoma): 2750 nM
GI50 (SK-MEL-5 melanoma): 314 nM
TGI (SK-MEL-5 melanoma): 1420 nM
GI50 (SK-OV-3 ovarian): 359 nM
TGI (SK-OV-3 ovarian): 1130 nM
GI50 (SN12C renal): 327 nM
TGI (SN12C renal): 1760 nM
GI50 (SNB-19 CNS): 350 nM
TGI (SNB-19 CNS): 1890 nM
GI50 (SNB-75 CNS): 243 nM
TGI (SNB-75 CNS): 1470 nM
GI50 (SR leukemia): 30.4 nM
TGI (SR leukemia): 1020 nM
GI50 (SW-620 colon): 379 nM
TGI (SW-620 colon): 1840 nM
GI50 (T-47D breast): 101 nM
TGI (T-47D breast): 669 nM
GI50 (TK-10 renal): 472 nM
TGI (TK-10 renal): 3970 nM
GI50 (U251 CNS): 234 nM
TGI (U251 CNS): 1540 nM
GI50 (UACC-257 melanoma): 475 nM
TGI (UACC-257 melanoma): 2940 nM
GI50 (UACC-62 melanoma): 512 nM
TGI (UACC-62 melanoma): 1880 nM
GI50 (UO-31 renal): 1660 nM
TGI (UO-31 renal): 4400 nM
